Data on 21 molecules can be found in patent US9546164B2 (GENENTECH, INC., priority 2013, dated 2017).

Where a name gives a salt, the structure may show the parent alone. Read-outs that look alike come from different tables or passages of the source.

One data set has as its target NaV1.5 (Homo sapiens (Human), UniProt Q14524). Description: Patch voltage clamp electrophysiological assay (EP), NaV1.5.
The target in the next data set is hNav1.7 (Homo sapiens (Human), UniProt Q15858). As to the kind of experiment: Tritiated sulfonamide competitive binding to membranes from cells expressing hNav1.7 and the β1 subunit.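 Further: Filter-bound radioactivity counted by liquid scintillation, nonspecific binding defined with excess unlabelled ligand, IC50 fitted to percent inhibition of specific binding.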
Another data set concerns the target NaV1.7 (Homo sapiens (Human), UniProt Q15858). As to the kind of experiment: Patch voltage clamp electrophysiological assay (EP), NaV1.7. Format: cell-based. The following applies: HEK-293 cells stably expressing human NaV1.7 with β1 subunit, whole-cell patch clamp, holding −60 mV. The protocol:
Electrophysiological Assay (EP) (In vitro Assay)
Control sodium currents were measured in 0.5% DMSO.
Series resistance compensation was applied (60-80%).

[1] abbreviates: read-out: NaV1.5 EP, HEK-293 cells stably expressing human NaV1.5 with β1 subunit, whole-cell patch clamp, holding −60 mV.
Setting [2] is: read-out: Ligand Binding Assay, 100 pM [3H]compound, membranes with hNav1.7 and β1 subunit, 18 h, room temperature.

hNav1.7, sequence (Q15858 other isoform, or with tags, fused parts or gaps): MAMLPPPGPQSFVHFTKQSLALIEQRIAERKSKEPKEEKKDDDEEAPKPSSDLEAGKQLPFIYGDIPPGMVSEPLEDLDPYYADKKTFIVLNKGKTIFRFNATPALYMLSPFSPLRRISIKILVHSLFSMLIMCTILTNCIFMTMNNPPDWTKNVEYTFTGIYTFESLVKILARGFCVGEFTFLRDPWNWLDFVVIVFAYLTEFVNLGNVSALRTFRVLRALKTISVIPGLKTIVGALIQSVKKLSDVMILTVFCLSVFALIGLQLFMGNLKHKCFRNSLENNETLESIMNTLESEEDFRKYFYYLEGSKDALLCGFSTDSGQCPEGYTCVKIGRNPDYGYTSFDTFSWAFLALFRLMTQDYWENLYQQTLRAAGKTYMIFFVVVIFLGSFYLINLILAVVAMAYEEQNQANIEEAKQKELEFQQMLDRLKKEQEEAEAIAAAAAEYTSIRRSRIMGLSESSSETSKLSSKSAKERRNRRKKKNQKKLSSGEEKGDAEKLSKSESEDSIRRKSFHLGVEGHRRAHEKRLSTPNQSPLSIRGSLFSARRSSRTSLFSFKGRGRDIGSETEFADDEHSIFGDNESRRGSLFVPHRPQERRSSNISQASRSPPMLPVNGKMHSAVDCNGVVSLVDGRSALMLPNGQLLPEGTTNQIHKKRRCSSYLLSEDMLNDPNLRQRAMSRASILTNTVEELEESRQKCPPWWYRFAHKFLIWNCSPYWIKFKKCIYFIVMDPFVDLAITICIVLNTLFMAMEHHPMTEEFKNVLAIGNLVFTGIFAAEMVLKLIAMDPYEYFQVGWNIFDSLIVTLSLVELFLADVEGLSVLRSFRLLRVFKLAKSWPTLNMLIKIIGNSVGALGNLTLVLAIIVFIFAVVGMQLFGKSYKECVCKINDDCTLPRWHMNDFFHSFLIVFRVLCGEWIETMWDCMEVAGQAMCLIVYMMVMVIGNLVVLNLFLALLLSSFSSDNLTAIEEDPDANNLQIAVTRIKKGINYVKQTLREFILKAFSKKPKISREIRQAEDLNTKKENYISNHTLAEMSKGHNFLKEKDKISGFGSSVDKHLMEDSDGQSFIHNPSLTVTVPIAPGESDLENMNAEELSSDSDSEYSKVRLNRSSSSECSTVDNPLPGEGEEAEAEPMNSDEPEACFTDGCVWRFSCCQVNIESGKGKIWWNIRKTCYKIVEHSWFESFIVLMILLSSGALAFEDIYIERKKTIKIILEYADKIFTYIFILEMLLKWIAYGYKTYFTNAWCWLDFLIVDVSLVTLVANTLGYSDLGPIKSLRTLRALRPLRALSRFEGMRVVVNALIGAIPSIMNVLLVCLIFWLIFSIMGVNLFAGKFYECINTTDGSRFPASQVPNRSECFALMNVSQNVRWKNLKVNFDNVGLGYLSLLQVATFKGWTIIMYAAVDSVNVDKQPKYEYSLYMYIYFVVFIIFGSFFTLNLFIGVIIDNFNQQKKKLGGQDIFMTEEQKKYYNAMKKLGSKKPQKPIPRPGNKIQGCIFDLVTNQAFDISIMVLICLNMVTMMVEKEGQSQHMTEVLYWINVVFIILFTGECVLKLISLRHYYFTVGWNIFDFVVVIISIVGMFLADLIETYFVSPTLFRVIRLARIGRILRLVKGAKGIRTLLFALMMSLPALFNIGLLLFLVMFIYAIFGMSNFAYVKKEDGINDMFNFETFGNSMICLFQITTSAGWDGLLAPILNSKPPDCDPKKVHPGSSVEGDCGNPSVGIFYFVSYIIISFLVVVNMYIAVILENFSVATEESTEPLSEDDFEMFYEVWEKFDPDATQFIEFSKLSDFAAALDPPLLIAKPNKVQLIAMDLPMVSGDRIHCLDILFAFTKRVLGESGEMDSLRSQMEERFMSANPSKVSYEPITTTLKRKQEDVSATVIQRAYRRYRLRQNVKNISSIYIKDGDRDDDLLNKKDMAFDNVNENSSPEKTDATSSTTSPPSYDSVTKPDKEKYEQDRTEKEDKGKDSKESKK
hNav1.7, sequence (Q07699 19-218 partner): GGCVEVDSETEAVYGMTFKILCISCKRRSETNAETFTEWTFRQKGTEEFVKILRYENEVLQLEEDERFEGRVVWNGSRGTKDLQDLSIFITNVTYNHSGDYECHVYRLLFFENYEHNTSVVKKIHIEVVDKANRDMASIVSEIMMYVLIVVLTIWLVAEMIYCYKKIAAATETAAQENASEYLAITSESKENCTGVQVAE
NaV1.7, sequence (Q15858 other isoform, or with tags, fused parts or gaps): as the sequence (Q15858 other isoform, or with tags, fused parts or gaps) above
NaV1.7, sequence (Q07699 19-218 partner): as the sequence (Q07699 19-218 partner) above
NaV1.5, sequence (Q14524 whole entry): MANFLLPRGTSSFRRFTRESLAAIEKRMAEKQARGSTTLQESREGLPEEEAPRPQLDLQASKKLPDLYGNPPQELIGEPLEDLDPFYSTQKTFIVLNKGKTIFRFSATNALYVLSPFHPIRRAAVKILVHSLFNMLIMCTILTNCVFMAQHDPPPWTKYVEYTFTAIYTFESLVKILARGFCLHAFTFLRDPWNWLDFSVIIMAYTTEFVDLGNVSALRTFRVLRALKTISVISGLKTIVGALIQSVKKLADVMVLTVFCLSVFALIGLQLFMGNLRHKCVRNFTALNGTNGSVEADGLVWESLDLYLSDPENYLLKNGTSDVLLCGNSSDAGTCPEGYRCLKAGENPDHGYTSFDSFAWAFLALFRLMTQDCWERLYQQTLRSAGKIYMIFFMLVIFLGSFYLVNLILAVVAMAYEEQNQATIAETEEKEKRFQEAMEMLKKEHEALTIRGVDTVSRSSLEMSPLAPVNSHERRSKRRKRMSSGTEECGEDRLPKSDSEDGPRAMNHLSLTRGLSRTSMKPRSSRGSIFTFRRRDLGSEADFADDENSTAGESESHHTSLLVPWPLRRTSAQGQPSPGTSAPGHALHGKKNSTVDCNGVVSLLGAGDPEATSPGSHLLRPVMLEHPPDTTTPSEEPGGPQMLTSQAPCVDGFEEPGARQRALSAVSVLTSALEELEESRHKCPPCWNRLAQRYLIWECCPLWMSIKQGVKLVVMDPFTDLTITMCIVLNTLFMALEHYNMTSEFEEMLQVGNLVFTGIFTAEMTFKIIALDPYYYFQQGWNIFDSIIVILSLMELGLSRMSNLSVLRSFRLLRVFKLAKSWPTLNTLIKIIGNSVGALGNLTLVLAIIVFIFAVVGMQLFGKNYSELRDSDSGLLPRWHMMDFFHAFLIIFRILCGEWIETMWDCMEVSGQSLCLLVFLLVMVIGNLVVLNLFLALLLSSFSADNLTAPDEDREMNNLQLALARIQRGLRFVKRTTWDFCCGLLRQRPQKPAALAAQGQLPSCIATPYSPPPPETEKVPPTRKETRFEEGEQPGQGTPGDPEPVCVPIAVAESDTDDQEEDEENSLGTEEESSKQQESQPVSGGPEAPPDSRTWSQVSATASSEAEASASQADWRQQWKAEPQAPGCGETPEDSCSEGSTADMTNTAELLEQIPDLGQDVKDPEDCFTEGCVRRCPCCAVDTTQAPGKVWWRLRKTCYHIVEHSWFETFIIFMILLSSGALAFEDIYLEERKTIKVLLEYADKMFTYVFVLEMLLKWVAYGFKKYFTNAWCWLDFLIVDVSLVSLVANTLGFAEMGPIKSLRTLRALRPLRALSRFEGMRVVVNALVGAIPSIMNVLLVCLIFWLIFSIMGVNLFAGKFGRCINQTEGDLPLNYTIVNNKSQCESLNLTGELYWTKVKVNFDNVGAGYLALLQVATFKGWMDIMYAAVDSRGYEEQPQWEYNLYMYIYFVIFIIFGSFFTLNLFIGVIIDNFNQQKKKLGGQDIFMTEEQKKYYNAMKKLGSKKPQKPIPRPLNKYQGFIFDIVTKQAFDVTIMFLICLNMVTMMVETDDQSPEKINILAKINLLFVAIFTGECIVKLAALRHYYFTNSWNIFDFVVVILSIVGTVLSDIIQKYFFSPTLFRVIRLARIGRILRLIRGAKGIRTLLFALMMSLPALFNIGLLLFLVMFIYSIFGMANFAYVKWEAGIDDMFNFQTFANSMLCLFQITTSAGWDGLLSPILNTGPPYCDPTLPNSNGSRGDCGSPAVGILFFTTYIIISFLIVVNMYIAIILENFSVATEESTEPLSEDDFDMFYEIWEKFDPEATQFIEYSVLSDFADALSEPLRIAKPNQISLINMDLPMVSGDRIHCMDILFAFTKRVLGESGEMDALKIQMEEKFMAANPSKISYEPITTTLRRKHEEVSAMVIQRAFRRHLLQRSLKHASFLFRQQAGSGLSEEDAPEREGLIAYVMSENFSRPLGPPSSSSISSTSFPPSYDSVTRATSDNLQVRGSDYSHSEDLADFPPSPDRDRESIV
Protocol for NaV1.5: The following patch voltage clamp electrophysiology studies were performed on representative compounds of the invention using human embryonic kidney cells (HEK), permanently transfected with an expression vector containing the full-length cDNA coding for the desired human sodium channel α-subunit, grown in culture media containing 10% FBS, 1% PSG, and 0.5 mg/mL G418 at 37° C. with 5% CO2. […] The β1 subunit was coexpressed in both the NaV1.7 and NaV1.5 cell lines.
Sodium currents were measured rising the patch clamp technique in the whole-cell configuration using either a PatchXpress automated voltage clamp or manually using an Axopatch 200B (Axon Instruments) or Model 2400 (A-M systems) amplifier. […] The pipette was filled with a solution comprised of: 5 mM NaCl, 10 mM CsCl, 120 mM CsF, 0.1 mM CaCl2, 2 mM MgCl2, 10 mM HEPES, 10 mM EGTA; and adjusted to pH 7.2 with CsOH. The external solution had the following composition: 140 mM NaCl, 5 mM KCl, 2 mM CaCl2, 1 mM MgCl2, 10 mM HEPES; and adjusted to pH 7.4 with NaOH. In some studies, the external sodium was reduced by equimolar replacement with choline. Osmolality in the CsF internal and NaCl external solutions was adjusted to 300 mOsm/kg and 310 mOsm/kg with glucose, respectively. All recordings were performed at ambient temperature in a bath chamber with a volume of 150 μL. Control sodium currents were measured in 0.5% DMSO. Controls and representative compounds of the invention were applied to the recording chamber through a 4-pinch or 8-pinch valve bath perfusion system manufactured by ALA Scientific Instruments.
Currents were recorded at 40 kHz sampling frequency, filtered at 5 Hz, and stored using a Digidata-1322A analogue/digital interface with the pClamp software (Axon instruments). Series resistance compensation was applied (60-80%). […] All statistics in this study are given as mean±SD.
The membrane potential was maintained at a voltage where reactivation of the channel is complete (which was −60 mV for both NaV1.7 and NaV1.5). The voltage is then stepped back to a very negative (Vhold=150 mV) voltage for 20 ms and then a test poise is applied to quantify the compound block. The 20 ms brief repolarization was long enough for compound-free channels to completely recover from fast inactivation, but the compound-bound channels recovered more slowly such that negligible recovery could occur during this interval. The percent decrease in sodium current following wash-on of compound was taken as the percent block of sodium channels.

With `CCS(=O)(=O)NC(=O)c1cc(C2CC2)c(OCC2CCN([C@@H](COC)c3cc(Cl)cc(Cl)c3)CC2)cc1F` (single isomer, unassigned) [Example 168], the results for the IC50 on NaV1.5 (setting [1]), on hNav1.7 (setting [2]) and at NaV1.7 were 78 nM, 6.2 nM and 3 nM, respectively.

Regarding `CC(C)Oc1ncc(CN2CCC(COc3cc(F)c(C(=O)NS(C)(=O)=O)cc3C3CC3)CC2)cc1Cl` [Example 217, 4-((1-((5-Chloro-6-isopropoxypyridin-3-yl)methyl)piperidin-4-yl)methoxy)-5-cyclopropyl-2-fluoro-N-(methylsulfonyl)benzamide], the IC50 at NaV1.5 (setting [1]) came out at 190 nM; against NaV1.7, 2.5 nM.

Consider `C[C@H](c1ccc(Cl)c(C2CC2)n1)N1CCC[C@@H](Oc2cc(F)c(C(=O)NS(C)(=O)=O)cc2C2CC2)C1` (single isomer, unassigned) [Example 309], for which the IC50 on NaV1.5 (setting [1]) worked out at 380 nM; on hNav1.7 (setting [2]) it was 2.7 nM; at NaV1.7, 3 nM.

Turning to `CS(=O)(=O)NC(=O)c1cc(C2CC2)c(OCC2(F)CCN(Cc3cc(C(F)(F)F)cc(Cl)c3F)CC2)cc1F` [Example 346, 4-((1-(3-chloro-2-fluoro-5-(trifluoromethyl)benzyl)-4-fluoropiperidin-4-yl)methoxy)-5-cyclopropyl-2-fluoro-N-(methylsulfonyl)benzamide trifluoroacetic acid salt], the IC50 on NaV1.5 (setting [1]) was 682000 nM; at hNav1.7 (setting [2]) it was 4.4 nM; against NaV1.7, 2.2 nM.

Take `O=C(NS(=O)(=O)N1CCC1)c1cc(C2CC2)c(O[C@H]2CCCN(Cc3ccccc3)C2)cc1F` [Example 2, (S)—N-(azetidin-1-ylsulfonyl)-4-((1-benzylpiperidin-3-yl)oxy)-5-cyclopropyl-2-fluorobenzamide]: the IC50 is 4120 nM on hNav1.7 (setting [2]) and 1080 nM against NaV1.7.

In the case of `O=C(NS(=O)(=O)C1CC1)c1cc(C2CC2)c(CN2CCC(Oc3ncc(C4CC4)cc3Cl)CC2)cc1F` [Example 474, 4-((4-((3-chloro-5-cyclopropylpyridin-2-yl)oxy)piperidin-1-yl)methyl)-5-cyclopropyl-N-(cyclopropylsulfonyl)-2-fluorobenzamide hydrochloride], the IC50 is 449 nM at NaV1.5 (setting [1]), 5.6 nM at hNav1.7 (setting [2]) and less than 3 nM against NaV1.7.

Take `CS(=O)(=O)NC(=O)c1cc(C2CC2)c(CN2CCO[C@H](Cc3cc(Cl)cc(Cl)c3)C2)cc1F` [Example 463, (R)-5-cyclopropyl-4-((2-(3,5-dichlorobenzyl)morpholino)methyl)-2-fluoro-N-(methylsulfonyl)benzamide]: the figures for the IC50 at NaV1.5 (setting [1]), on hNav1.7 (setting [2]) and against NaV1.7 were 669 nM, 3.8 nM and less than 3 nM, respectively.

In the case of `CS(=O)(=O)NC(=O)c1cc(C2CC2)c(OCC2CCN(Cc3cc(F)cc(Cl)c3)CC2)cc1F` [Example 268, 4-((1-(3-Chloro-5-fluorobenzyl)piperidin-4-yl)methoxy)-5-cyclopropyl-2-fluoro-N-(methylsulfonyl)benzamide], the IC50 was found to be 6 nM at hNav1.7 (setting [2]) and 2.8 nM at NaV1.7.

As for `O=C(NS(=O)(=O)C1CC1)c1cc(C2CC2)c(CN2CCO[C@H](Cc3cc(Cl)cc(Cl)c3)C2)cc1F` [Example 464, (R)-5-cyclopropyl-N-(cyclopropylsulfonyl)-4-((2-(3,5-dichlorobenzyl)morpholino)methyl)-2-fluorobenzamide], the values for the IC50 on NaV1.5 (setting [1]), at hNav1.7 (setting [2]) and against NaV1.7 were 109 nM, 2.7 nM and less than 3 nM, respectively.

Consider `COC[C@@H](c1cc(Cl)cc(Cl)c1)N1CCC(COc2cc(F)c(C(=O)NS(C)(=O)=O)cc2C2CC2)CC1` (single isomer, unassigned) [Example 162], for which the IC50 at hNav1.7 (setting [2]) is 3.9 nM; on NaV1.7 it was 2.8 nM.

Turning to `CC(C)(c1cc(Cl)cc(Cl)c1)N1CCC(COc2cc(F)c(C(=O)NS(C)(=O)=O)cc2C2CC2)CC1` [Example 209], the IC50 on hNav1.7 (setting [2]) was 1.7 nM; against NaV1.7, 15.8 nM.

`O=C(NS(=O)(=O)N1CCC1)c1cc(C2CC2)c(O[C@@H]2CCCN(Cc3ccccc3)C2)cc1F` [Example 1, (R)—N-(azetidin-1-ylsulfonyl)-4-((1-benzylpiperidin-3-yl)oxy)-5-cyclopropyl-2-fluorobenzamide]: the IC50 at NaV1.5 (setting [1]) was 2760 nM; on hNav1.7 (setting [2]), 35.6 nM; at NaV1.7 it was 22.6 nM.

In the case of `O=C(NS(=O)(=O)C1CC1)c1cc(C2CC2)c(CN2[C@@H]3CC[C@H]2C[C@@H](Oc2cc(Cl)cc(Cl)c2)C3)cc1F` [Example 475, 5-cyclopropyl-N-(cyclopropylsulfonyl)-4-(((1R,3r,5S)-3-(3,5-dichlorophenoxy)-8-azabicyclo[3.2.1]octan-8-yl)methyl)-2-fluorobenzamide hydrochloride], the IC50 against NaV1.5 came out at 814 nM.

`COc1ccc(CN2CCC[C@@H](Oc3cc(F)c(C(=O)NS(C)(=O)=O)cc3C3CC3)C2)c(C)c1` [Example 434, trifluoroacetic acid salt]: the IC50 on hNav1.7 (setting [2]) turned out to be 5 nM; on NaV1.7 it was 12.8 nM.

Take `COC[C@@H](c1cc(Cl)cc(Cl)c1)N1CCC(COc2cc(F)c(C(=O)NS(=O)(=O)C3CC3)cc2C2CC2)CC1` (single isomer, unassigned) [Example 164]: the figures for the IC50 at hNav1.7 (setting [2]) and at NaV1.7 were 4.3 nM and 3.3 nM, respectively.

Regarding `CCS(=O)(=O)NC(=O)c1cc(C2CC2)c(OCC2CCN([C@H](COC)c3cc(Cl)cc(Cl)c3)CC2)cc1F` (single isomer, unassigned) [Example 169], the figures for the IC50 on NaV1.5 (setting [1]), at hNav1.7 (setting [2]) and on NaV1.7 were 280 nM, 6.3 nM and 3 nM, respectively.

Consider `COC[C@H](c1cc(Cl)cc(Cl)c1)N1CCC(COc2cc(F)c(C(=O)NS(=O)(=O)C3CC3)cc2C2CC2)CC1` (single isomer, unassigned) [Example 165], for which the IC50 on NaV1.5 (setting [1]) came to 49 nM; on hNav1.7 (setting [2]) it was 2.3 nM; against NaV1.7 it was 2.4 nM.

As for `O=C(NS(=O)(=O)C1CC1)c1cc(C2CC2)c(O[C@@H]2CCCN(Cc3cccc(Cl)c3)C2)cc1F` [Example 27, (R)-4-((1-(3-chlorobenzyl)piperidin-3-yl)oxy)-5-cyclopropyl-N-(cyclopropylsulfonyl)-2-fluorobenzamide], the IC50 against NaV1.5 was 169 nM; at hNav1.7 it was 3.6 nM.

Molecule `COC[C@H](c1cc(Cl)cc(Cl)c1)N1CCC(COc2cc(F)c(C(=O)NS(=O)(=O)N3CCC3)cc2C2CC2)CC1` (single isomer, unassigned) [Example 167] returned an IC50 on NaV1.7 of 4.2 nM.

For `CS(=O)(=O)NC(=O)c1cc(C2CC2)c(OCC2CCN(C(c3ccc(F)c(Cl)c3)C(F)(F)F)CC2)cc1F` (centres unmarked) [Example 301, 4-((1-(1-(3-chloro-4-fluorophenyl)-2,2,2-trifluoroethyl)piperidin-4-yl)methoxy)-5-cyclopropyl-2-fluoro-N-(methylsulfonyl)benzamide], at hNav1.7 (setting [2]), the IC50 turned out to be 3 nM.

In the case of `O=C(NS(=O)(=O)C1CC1)c1cc(C2CC2)c(CN2C[C@@H]3C[C@H]2CN3S(=O)(=O)c2cc(Cl)cc(Cl)c2)cc1F` [Example 559, 5-cyclopropyl-N-(cyclopropylsulfonyl)-4-(((1S,4S)-5-((3,5-dichlorophenyl)sulfonyl)-2,5-diazabicyclo[2.2.1]heptan-2-yl)methyl)-2-fluorobenzamide, trifluoroacetic acid salt], the IC50 at hNav1.7 was determined as 18.9 nM.
